Laboratory results from US20230348459A1, “PYRROLIDINE COMPOUND AND USE THEREOF” (SIMCERE PHARMACEUTICAL CO., LTD., priority 2020, published 2023).
Where two headings read alike, the source gives them in different places.

Columns and labels:
[1] = Blood-brain barrier (BBB) permeability in rats; assay type: in vivo, SD rats; conditions: for Kp at 2 h / concentration at 2 h: rat, female SD rats, 100 mg/kg QD, 2 h after administration; for Kp at 2 h: brain/plasma, read-out: B/P ratio
Description: Six female SD rats (200-300 g, 6-8 weeks) were randomized into 2 groups, 3 rats/group. Each rat was given the compounds of the present invention, and the vehicle was 0.5% methylcellulose aqueous solution. Animals were fed with water as usual and fasted overnight before the experiment, and feeding was resumed four hours after administration. Plasma and brain tissue were collected from rats of each group 2 h after administration. The whole blood sample collected was placed in a K2EDTA anticoagulation tube and centrifuged for 5 min (12,000 rpm, 4° C.) and then the plasma was taken for later detection. After tissue collection, the tissue was dried with filter paper, and the samples were stored in a -80° C. freezer for later detection.
10 µL of the rat plasma sample was taken and 150 µL of acetonitrile solvent (wherein an internal standard compound was contained) was added to precipitate proteins. After the mixture was vortexed for 5 min, centrifugation (14,000 rpm) was performed for 5 min. The supernatant was diluted 2-fold with water containing 0.1% (v/v) FA and injected into the LC-MS/MS system (AB Sciex Triple Quad 6500+) for the quantitative detection. For the 10x diluted samples, 2 µL of the sample was taken and 18 µL of blank plasma was added. After the mixture was vortexed for 0.5 min, 300 µL of acetonitrile solvent (wherein an internal standard compound was contained) was added to precipitate proteins. The other processing steps were identical to those for the samples not diluted. A calibration standard curve was prepared in SD rat plasma along with plasma quality control samples to determine the plasma concentration.
Brain tissue samples from rat were first homogenized with 4 times the mass volume of PBS homogenate. 20 µL of brain tissue homogenate sample was taken, and 20 µL of blank mouse plasma was added. The mixture was diluted and mixed uniformly, and 600 µL of acetonitrile solvent (wherein an internal standard compound was contained) was added to precipitate proteins. After the mixture was vortexed for 5 min, centrifugation (14,000 rpm) was performed for 5 min. The supernatant was diluted 2-fold with water containing 0.1% (v/v) FA and injected into the LC-MS/MS system (AB Sciex Triple Quad 6500+) for the quantitative detection.

[2] = system: MCF-7 subcutaneous tumor; experiment: Growth inhibition in MCF-7 subcutaneous tumor model in mice; assay type: in vivo, NPG mice; conditions: for TGI: 3 weeks; for Average tumor volume Day 0: Day 0 (grouping); for Effect on body weight of mice: at the doses tried
Description: Cell inoculation: 0.1 ml/(containing 1 × 10^7) MCF-7 cell suspension (volume ratio of D-PBS : Matrigel = 1 : 1) was inoculated subcutaneously on the right back of each mouse, and the mice were inoculated subcutaneously with 17β-estradiol tablets four days before the cell inoculation.
Administration: The compound # Example 1 was administered at a dose of 1, 3, or 10 mg/kg, orally (PO), once daily (QD) for 3 weeks. The compound # Example 2 was administered at a dose of 10 mg/kg, orally (PO), once daily (QD) for 3 weeks. 8 mice were in the vehicle group and 6 mice were in the administration group.
The diameter of the tumor was measured with vernier calipers twice weekly. The calculation formula of tumor volume was V = 0.5a × b^2, wherein a and b represented the long and short diameters of the tumor, respectively. The body weights of the mice were weighed twice weekly.
The tumor-inhibiting efficacy of the compound was evaluated using tumor growth inhibition (TGI) (%).

[3] = system: MCF-7 intracranial tumor; experiment: Growth inhibition in MCF-7 intracranial tumor model in mice; conditions: 30 mg/kg PO once daily
Description: Animal information: NPG mice (female, 6-8 weeks, body weight: about 17-29 g) were purchased from Beijing Vitalstar Biotechnology Co., Ltd. The mice were fed in SPF environment and each cage position was individually ventilated.
Cell culture: The human breast cancer MCF-7 cell line was cultured in vitro in EMEM (cell culture medium) supplemented with 10% fetal bovine serum, 1% Pen Strep and 10 µg/ml recombinant human insulin in a 37° C., 5% CO2 incubator. Conventional digestion treatment with 0.25% trypsin-EDTA digestion solution was carried out twice weekly for passage. When the cell saturation was 80%-90%, and the number reached the requirement, the cells were collected and counted.
Cell inoculation: 15 µl/(containing 2 × 10^6) MCF-7 cell suspension was inoculated into the brain of mice using a stereotaxic apparatus, a micro-injection pump and a miniature handheld cranial drill, and the mice were subcutaneously inoculated with 17β-estradiol tablets three days before the cell inoculation. On day 8 after cell inoculation, the mice were randomized into groups for administration according to the body weight thereof, and the day of grouping was Day 0.
11 mice were in the vehicle group and 8 mice were in the administration group. Mice in all groups were continuously administered until the mice died, which were euthanized due to poor state or the end of the experiment.
The body weight of the mice was measured twice weekly, and the survival status of the mice was observed.
At the end of the experiment on Day 48, all mice were euthanized.

[4] = brain, read-out: Drug concentration in brain
[5] = plasma, read-out: Drug concentration in plasma

SMILES: C[C@@H]1Cc2c([nH]c3ccccc23)C(c2c(F)cc(N[C@H]3CCN(CCCF)C3)cc2F)N1CC(F)(F)CO (stereo in doubt) [Example 7, 3-((1S,3R)-1-(2,6-difluoro-4-(((S)-1-(3-fluoropropyl)pyrrolidin-3-yl)amino)phenyl)-3-methyl-3,4-dihydro-1H-pyridino [3,4-b]indole-2(9H)-yl)-2,2-difluoropropane-1-ol]
- Kp at 2 h [1]: 0.28
- concentration at 2 h [1, 4]: 703 ng/g
- concentration at 2 h [1, 5]: 2.54 µg/mL
- TGI ([2]; 10 mg/kg PO QD): 140.09%
- Average tumor volume Day 0 ([2]; 10 mg/kg PO QD): 170 mm^3
- Average tumor volume Day 21 ([2]; 10 mg/kg PO QD): 80 mm^3
- Effect on body weight of mice [2]: do not significantly affect the body weight

SMILES: C[C@@H]1Cc2c([nH]c3ccccc23)[C@@H](c2ccc(N[C@H]3CCN(CCCF)C3)cn2)N1CC(F)(F)F [Example 3, N-((S)-1-(3-fluoropropyl)pyrrolidin-3-yl)-6-((1S,3R)-3-methyl-2-(2,2,2-trifluoroethyl)-2,3,4,9-tetrahydro-1H-pyridino[3,4-b]indol-1-yl)pyridine-3-amine]
- Deaths in group ([3]; until Day 48): No death case occurred
- Survival period vs solvent control or Fulvestrant ([3]; P < 0.01): significantly prolonged
- Kp at 2 h [1]: 4.2
- concentration at 2 h [1, 4]: 10600 ng/g
- concentration at 2 h [1, 5]: 2.62 µg/mL
- Blood-brain barrier permeability (in words) ([1]; rats): excellent blood-brain barrier permeability
- TGI ([2]; 1 mg/kg PO QD): 89.08%
- Average tumor volume Day 0 ([2]; 1 mg/kg PO QD): 183 mm^3
- Average tumor volume Day 21 ([2]; 1 mg/kg PO QD): 207 mm^3
- TGI ([2]; 3 mg/kg PO QD): 114.71%
- Average tumor volume Day 0 ([2]; 3 mg/kg PO QD): 169 mm^3
- Average tumor volume Day 21 ([2]; 3 mg/kg PO QD): 136 mm^3
- TGI ([2]; 10 mg/kg PO QD): 138.17%
- Average tumor volume Day 0 ([2]; 10 mg/kg PO QD): 177 mm^3
- Average tumor volume Day 21 ([2]; 10 mg/kg PO QD): 91 mm^3
- Effect on body weight of mice [2]: do not significantly affect the body weight
- Tumor shrinkage (in words) ([2]; doses of 3 mg/kg and 10 mg/kg): shows an effect of shrinking tumor
- Effect on tumor growth (in words) ([2]; orally once daily at 1 mg/kg, 3 mg/kg or 10 mg/kg, P < 0.01): significant inhibitory effects
